{
  "source": "paper PMC8032624",
  "about": "“Prediction of dose-dependent in vivo acetylcholinesterase inhibition by profenofos in rats and humans using physiologically based kinetic (PBK) modeling-facilitated reverse dosimetry” (Archives of Toxicology, 2021)",
  "biological_target": "AChE (Homo sapiens, UniProt P22303)",
  "sequence (P22303 32-614)": "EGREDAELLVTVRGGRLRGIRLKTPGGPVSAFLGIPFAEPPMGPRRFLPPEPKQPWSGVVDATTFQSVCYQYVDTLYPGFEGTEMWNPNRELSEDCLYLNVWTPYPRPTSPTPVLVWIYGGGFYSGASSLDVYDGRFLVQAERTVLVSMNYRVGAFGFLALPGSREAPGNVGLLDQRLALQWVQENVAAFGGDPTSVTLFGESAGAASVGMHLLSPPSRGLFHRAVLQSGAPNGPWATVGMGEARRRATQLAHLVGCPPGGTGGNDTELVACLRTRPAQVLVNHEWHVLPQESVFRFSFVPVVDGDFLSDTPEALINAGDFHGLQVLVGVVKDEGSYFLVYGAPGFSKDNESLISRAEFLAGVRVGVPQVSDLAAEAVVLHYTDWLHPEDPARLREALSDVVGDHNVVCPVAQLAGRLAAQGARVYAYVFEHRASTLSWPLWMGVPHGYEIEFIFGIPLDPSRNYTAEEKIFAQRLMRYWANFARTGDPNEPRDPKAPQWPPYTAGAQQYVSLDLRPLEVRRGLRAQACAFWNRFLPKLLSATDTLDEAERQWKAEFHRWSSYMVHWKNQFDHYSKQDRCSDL",
  "assay": "AChE inhibition by BCP",
  "format": "biochemical",
  "data": [
    {"compound": "Oc1ccc(Br)cc1Cl", "note": "[BCP, 4-bromo-2-chlorophenol]", "values": [
      {"measurement": "AChE inhibition", "value": "not inhibit AChE"}
    ]}
  ]
}
